Here are results for five compounds from patent US20110200535A1, “DAA-PYRIDINE AS PERIPHERAL BENZODIAZEPINE RECEPTOR LIGAND FOR DIAGNOSTIC IMAGING AND PHARMACEUTICAL TREATMENT” (BAYER SCHERING PHARMA AKTIENGESELLSCHAFT, priority 2008, published 2011).

The conditions of series [1]: cited from earlier work.
For series [2], the target named is PBR (Homo sapiens, UniProt P30536). The series can be described thus: PBR binding, [^3H]-PK11195.
Series [3] addresses CBR (central diazepine receptor). Briefly: CBR binding, [^3H]-Flumazenil.
For series [4], the target named is T1, peripheral benzodiazepine receptor (PBR) (Rattus norvegicus, UniProt P16257).
T1 construct: from tissue; host or cells: rat brain (hippocampus, cerebellum) after i.v. tracer injection
The series can be described thus: Ex vivo autoradiography of brain sections, rat kainic acid induced epilepsy model. The class given is in vivo. The following applies: rat kainic acid model, 30 min ex vivo autoradiography. On the procedure:
Using a rat kainic acid induced epilepsy model and respective sham controls the accumulation of [^18F]-2d and [^18F]-5d was visualized ex vivo. In brief, epilepsy was induced in rats by injecting kainic acid i.p. At day eight after the start of the kainic acid treatment [^18F]-2d and [^18F]-5d were injected into the tail vein of the rats and their sham treated controls (PBS instead of kainic acid) at a dose of 25.8-35.8 MBq (approximately 1.0 μg) per rat. Thirty minutes after intravenous injection the rats were sacrificed, the brains were taken out, snap frozen and sliced transversally in a cryostat. The slices were exposed to PhosphoImager plates over night. The resulting autoradiographic signals were analyzed qualitatively and quantitatively (FIG. 2.1 A and C, 2.2 A and C). […] To determine the specificity of the [^18F]-2d and [^18F]-5d binding, kainic acid treated rats were co-injected with [^19F]-2e and [^19F]-5e, respectively.
The autoradiographic signals were quantified. The signal intensity in a hippocampal region of interest (ROI) was measured and compared to a ROI in the cerebellum, that was used as reference region.

Bounds are passed on as bounds.

Sequence of PBR (P30536 whole entry, species assumed): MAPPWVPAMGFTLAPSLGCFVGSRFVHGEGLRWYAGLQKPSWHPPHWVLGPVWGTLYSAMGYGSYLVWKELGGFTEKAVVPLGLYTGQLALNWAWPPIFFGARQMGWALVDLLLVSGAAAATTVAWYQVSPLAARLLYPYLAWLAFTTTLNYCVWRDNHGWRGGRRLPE

In the case of `CC(=O)N(Cc1ccccc1OCC[18F])c1cnccc1Oc1ccccc1` [[^18F]-FEPPA], the “Brain uptake, standard uptake value (SUV), washout” value in series [1] (after 60 min) is given as 0.35. The “Brain uptake, standard uptake value (SUV)” value in series [1] (at 5 min) was 0.6.

Turning to `COc1ccc(Oc2ncccc2N(Cc2cc(OC)ccc2OCCF)C(C)=O)cc1` [[^19F]-2e, N-[2-(2-fluoroethoxy)-5-methoxybenzyl]-N-[2-(4-methoxyphenoxy)pyridin-3-yl]acetamide], the values for the Ki in series [2] and in series [3] were 3.6 ± 1.3 nM and > 20000 nM, respectively.

As for `COc1ccc(OCCF)c(CN(C(C)=O)c2cccnc2Oc2cccc(C)c2C)c1` [[^19F]-5e, N-[2-(2,3-dimethylphenoxy)pyridin-3-yl]-N-[2-(2-fluoroethoxy)-5-methoxybenzyl]acetamide], the “Hipp/Cereb ratio (signal-to-background ratio, hippocampus/cerebellum)” value in series [4] is listed as 5.6±1.8. Further, the Ki (commonly a dissociation constant, usually derived from enzyme kinetics or from competition with a known ligand) in series [2] was 2.57 ± 0.06 nM; in series [3], > 20000 nM.

In the case of `CCN(CC)C(=O)Cc1c(-c2ccc(OCCF)cc2)nn2c(C)cc(C)nc12` [[^19F]-DPA-714, reference compound], the Ki in series [2] was 1.46 ± 0.12 nM; in series [3] it was > 20000 nM.

In the case of `COc1ccc(OCCF)c(CN(C(C)=O)c2cc(F)ccc2Oc2ccccc2)c1` [[^19F]-FEDAA1106, reference compound], the Ki is 1.5 ± 0.15 nM in series [2] and > 20000 nM in series [3].
